The record followed here is the Kinase Knowledgebase extract (Sharma et al. 2016).

The test system of one experiment is MAPK14 (BALB/cJ mice). Description: TNF-alpha Inhibition (Mice Model). As to conditions: dose or concentration not given here.
The target in a further experiment is MAPK14 (human) (UniProt Q16539). Description: TNF-alpha Inhibition (PBMC).
The next experiment addresses MAPK14 (UniProt Q16539). The experiment in a line: MAPK14 (p38) Inhibition. As to conditions: concentration not given here.

By inhibition is commonly meant the share of the control response that was lost under treatment. Low readings indicate a response near the control, high ones a response far below the control. For orientation: IC50 means the point on the concentration scale where inhibition reaches its midpoint. The low end stands for greater potency, the high end for weaker potency.

Structures are written as SMILES.

Chain of MAPK14 (human) (Q16539 whole entry, looked up): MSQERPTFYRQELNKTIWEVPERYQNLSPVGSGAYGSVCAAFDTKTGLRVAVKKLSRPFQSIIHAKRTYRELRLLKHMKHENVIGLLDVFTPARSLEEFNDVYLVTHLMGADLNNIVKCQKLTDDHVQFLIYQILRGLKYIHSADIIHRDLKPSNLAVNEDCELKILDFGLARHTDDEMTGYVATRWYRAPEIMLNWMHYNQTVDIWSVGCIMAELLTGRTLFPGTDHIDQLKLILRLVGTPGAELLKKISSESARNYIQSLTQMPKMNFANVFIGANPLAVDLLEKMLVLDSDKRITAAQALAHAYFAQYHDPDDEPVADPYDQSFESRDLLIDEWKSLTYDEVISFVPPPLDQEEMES
Chain of MAPK14 (Q16539 whole entry, looked up): as above

In the experiment with MAPK14 (BALB/cJ mice), `N#CCCCC#Cc1nc(-c2ccc(F)cc2)c(-c2ccncc2)[nH]1` yielded an inhibition of 95%.

For the molecule `O[C@@H](C#Cc1nc(-c2ccncc2)c(-c2ccc(F)cc2)[nH]1)c1ccccc1`, the IC50 against MAPK14 (human) was 400 nM.

In the case of `OCCCC#Cc1nc(-c2ccc(F)cc2)c(-c2ccncc2)n1CCCc1ccccc1`, on MAPK14, the inhibition was determined as 99%.

`C[Si](C)(C)CCOCn1c(C#CCCCCO)nc(-c2ccncc2)c1-c1ccc(F)cc1` gave an IC50 on MAPK14 (human) above 2000 nM.

On MAPK14 (human), `C[Si](C)(C)CCOCn1c(C#CCCCC#N)nc(-c2ccncc2)c1-c1ccc(F)cc1` gave an IC50 above 2000 nM.

Molecule `CCCCCCC#Cc1nc(-c2ccc(F)cc2)c(-c2ccncc2)n1CCCc1ccccc1` gave an IC50 against MAPK14 (human) of 90 nM.

`OCCCCC#Cc1nc(-c2ccc(F)cc2)c(-c2ccncc2)n1CCCc1ccccc1` had an inhibition at MAPK14 of 98%.

With `Fc1ccc(-c2[nH]c(C=C(Br)Br)nc2-c2ccncc2)cc1`, on MAPK14, the inhibition turned out to be 93%.

Take `C[Si](C)(C)CCOCn1c(C=C(Br)Br)nc(-c2ccncc2)c1-c1ccc(F)cc1`: the inhibition at MAPK14 was 16%.
